Test results from patent publication US10662407B2, “Method for controlling differentiation of embryonic stem cells into adipocytes or kidney precursor cells by regulating SIRT1 expression” (INDUSTRIAL COOPERATION FOUNDATION CHONBUK NATIONAL …, priority 2015, dated 2020).

Key:
[1] = tested on: C/EBP α mRNA expression; experiment: PCR of C/EBP α mRNA during adipocyte differentiation of embryonic stem cells; assay type: cell-based, mouse; conditions: SIRT1+/+ cells treated with EX527 10 μM, harvested 7 and 10 days after induction, FIG. 3
Description: (§1) In the present disclosure, in order to confirm the mechanism of regulating the differentiation of embryonic stem cells into adipocytes by SIRT1, in the step of differentiating into adipocytes, mRNA expression levels of peroxisome proliferator-activated receptors-γ (PPARγ), CCAAT/enhancer-binding protein-α (C/EBP α) and fatty acid binding protein 4 (FABP4) in adipocytes were measured by a PCR method. Each primer used in the PCR method was as represented in Table 1 and was manufactured by Bioneer (Korea). GAPDH was used as a control group for the reliability of the PCR method.
(§2) In the same manner as in Example 2, differentiation of embryonic stem cells into adipocytes was induced, each cell was harvested on 7 and 10 days after induction of lipid differentiation, and total RNAs were extracted using TRIzol reagent (Life Technology, USA). The extracted RNAs were synthesized into cDNAs using a cDNA synthesis kit (Roche, Germany) and a PCR method was carried out using the primers represented in Table 1.

[2] = tested on: PPARγ mRNA expression; experiment: PCR of PPARγ mRNA during adipocyte differentiation of embryonic stem cells; assay type: cell-based, mouse; conditions: SIRT1+/+ cells treated with EX527 10 μM, harvested 7 and 10 days after induction, FIG. 3
Description: as §1, §2

[3] = tested on: Six2 mRNA expression; experiment: Quantitative PCR of Six2 mRNA during differentiation of embryonic stem cells into kidney precursor cells; assay type: cell-based, mouse; conditions: for mRNA expression level of Six2: embryonic stem cells, EX527 5-10 uM, resveratrol 10-20 uM, FIG. 7B
Description: (§3) The cell culture media, from which Leukemia Inhibitory Factor (LIF; Milipore, USA) was removed, were treated with 100 nmol/L Retinoic acid and 10 ng/mL Activin A, and then mRNA expression levels of Six2 and WT1, kidney precursor cells, were measured. In the process of induction into kidney precursor cells, embryonic stem cells were inoculated into wells of a 6-well plate to be cultured therein.
(§4) The media for differentiation into kidney precursor cells were cultured by adding 2 mM Gluta MAX™ (Gibco, USA), 1× Non-essential aminoacid, (1×NEAA; Gibco, USA), 0.1 mM beta-mercaptoethanol (Invitrogen, USA) and […] to DMEM.
(§5) In the step for differentiation of embryonic stem cells into kidney precursor cells, mRNA expression levels of Six2 and WT1, indicators of kidney precursor cells, were measured by a PCR method. Each primer used in the PCR method was as represented in Table 2 and was manufactured by Bioneer (Korea). GAPDH was used as a control group for the reliability of the PCR method.
as §2, with “6,” for “2,”, “kidney precursor cells” for “adipocytes”, “day 11 of differentiation induction” for “7”, “then” for “10 days after induction of lipid differentiation, and”, “2.” for “1.”
(§6) In order to confirm the differentiation of embryonic stem cells into kidney precursor cells according to the inhibition or promotion of SIRT1 protein expression, the differentiation of the embryonic stem cells (SIRT1+/+; WT) expressing the SIRT1 genes, which were prepared in Example 1, into kidney precursor cells was confirmed. The differentiation was confirmed by protein expression levels of Six2 and WT1, indicators of kidney precursor cells.
(§7) In the step for differentiation of embryonic stem cells into kidney precursor cells, mRNA expression levels of Six2 and WT1, indicators of kidney precursor cells, were measured by a quantitative PCR method.

[4] = tested on: mouse embryonic stem cells (SIRT1+/+; WT), differentiation into adipocytes; experiment: Oil Red O staining of embryonic stem cells differentiated into adipocytes; assay type: cell-based; conditions: for differentiation into adipocytes versus group without inhibitor (Oil Red O): EX527 10 μM, FIG. 4
Description: In the present disclosure, in order to determine whether differentiation of embryonic stem cells into adipocytes was affected by the presence or absence of SIRT1 protein expression, degrees of differentiation of the embryonic stem cells (SIRT1+/+; WT) expressing the SIRT1 genes and the mouse embryonic stem cells lacking SIRT1 genes (SIRT1−/−; KO), prepared in Example 1, were determined, and when EX527 (10 μM, Tocris, UK), SIRT1 inhibitor, was treated with SIRT1+/+ embryonic stem cells, the degree of lipid differentiation according to SITRT1 inhibition was determined.
In the hanging-drop culture, 1000 embryonic stem cells were added into 20 μl to prepare a single embryoid body, the process of induction into adipocytes was cultured by inoculating 15 cultures into each well using a 6-well plate.
The medium for differentiation into adipocyte was prepared by adding 85 nM insulin (Sigma, USA), 2 nM triiodothyronine (Sigma, USA) and 2 μM rosiglitazone (Sigma, USA) to DMEM and embryoid bodies were cultured, the medium exchange was performed daily.
In addition, SIRT1 inhibitor EX527 was added to SIRT1+/+ embryonic stem cells until the early 5th day of differentiation into adipocytes.
Oil Red O staining was performed to determine whether the differentiation into adipocytes was successfully performed in mouse embryonic stem cells differentiated for 21 days in Example 2.
First, SIRT1+/+ cells, SIRT1−/− cells, and SIRT1+/+ cells differentiated by treatment with SIRT1 inhibitor were treated with 10% formaldehyde to fix the cells, the formaldehyde was washed with phosphate buffered saline three times and then was treated with 60% isopropanol. Then, 2 ml Oil Red O staining solution was added and the mixture was stained at room temperature for 30 minutes in the dark, and then was washed with phosphate buffered saline three times.
Oil Red O staining was performed on the lipid droplets in the differentiated adipocytes. After staining, the cells were observed using a microscope to identify red-stained fat adipocytes.
When the observation was completed, stained dye in adipocyte was extracted using 1 ml isopropanol per well and optical density (OD) was measured at 500 nm with an ELISA reader. The Oil Red O staining solution is a solution of 500 mg of Oil Red O dye (Sigma, USA) in 100 ml isopropanol, mixed with distilled water at a ratio of 6:4 and filtered using a 0.45 μm filter.
In the same manner as in Example 2, differentiation of embryonic stem cells into adipocytes was induced. The samples were divided into various groups: a group treated for 0 to 5 days at the early stage of differentiation, a group treated for 7 to 21 days at the latter stage of differentiation, and a group treated for 0 to 21 days during the entire differentiation period, which were treated with the SIRT1 inhibitor.

[5] = tested on: WT1 mRNA expression; experiment: Quantitative PCR of WT1 mRNA during differentiation of embryonic stem cells into kidney precursor cells; assay type: cell-based, mouse; conditions: for mRNA expression level of WT1: embryonic stem cells, EX527 5-10 uM, resveratrol 10-20 uM, FIG. 7A
Description: as §3, §4, §5
as §2, with “6,” for “2,”, “kidney precursor cells” for “adipocytes”, “day 11 of differentiation induction” for “7”, “then” for “10 days after induction of lipid differentiation, and”, “2.” for “1.”
as §6, §7

[6] = tested on: FABP4 mRNA expression; experiment: PCR of FABP4 mRNA during adipocyte differentiation of embryonic stem cells; assay type: cell-based, mouse; conditions: SIRT1+/+ cells treated with EX527 10 μM, harvested 7 and 10 days after induction, FIG. 3
Description: as §1, §2

Row | SMILES | mRNA expression of C/EBP α [1] | mRNA expression of PPARγ [2] | mRNA expression level of Six2 [3] | mRNA expression level of Six2 ([3]; listed as SIRT1 inhibitor) | differentiation into adipocytes versus group without inhibitor (Oil Red O) ([4]; treated 0 to 5 days, early stage of differentiation) | differentiation into adipocytes versus group without inhibitor (Oil Red O) ([4]; treated 0 to 21 days, entire differentiation period) | differentiation into adipocytes versus group without inhibitor (Oil Red O) ([4]; treated 7 to 21 days, latter stage of differentiation) | adipocyte differentiation (lipid droplets, Oil Red O staining, microscope) versus SIRT1+/+ cells ([4]; SIRT1+/+ cells, EX527 10 μM until early 5th day of differentiation, 21 days differentiation, FIG. 2A) | reduction of adipocyte differentiation (absorbance at 500 nm of extracted Oil Red O) ([4]; SIRT1+/+ cells, EX527 10 μM until early 5th day, compared to SIRT1+/+ cells, FIG. 2B) | mRNA expression level of WT1 [5] | mRNA expression level of WT1 ([5]; listed as SIRT1 inhibitor) | mRNA expression of FABP4 [6] | expression of Six2 compared with control ([3]; resveratrol 20 μM) | expression of WT1 compared with control ([5]; resveratrol 20 μM)
1 | NC(=O)C1CCCc2c1[nH]c1ccc(Cl)cc21 (stereo not shown) [EX527, 6-Chloro-2,3,4,9-tetrahydro-1H-Carbazole-1-carboxamide] | significantly decreased | significantly decreased | significantly decreased | decreased | decrease in differentiation into adipocytes | not significantly different | more differentiated into adipocytes | remarkably lower | about 38% | significantly decreased | decreased | significantly decreased | – | –
2 | Oc1ccc(C=Cc2cc(O)cc(O)c2)cc1 [resveratrol] | – | – | significantly increased | – | – | – | – | – | – | significantly increased | – | – | significantly promoted | significantly promoted
